Numbers after ± are expanded uncertainties.
Assay: activity coefficient (dimensionless); of the first substance listed, at infinite dilution; xn = mol fraction of the nth substance listed
Settings: 101.33 kPa, Liquid, Chromatography, x1 = 0

| Structure (SMILES) | activity coefficient (328.15 K) | activity coefficient (338.15 K) | activity coefficient (348.15 K) | activity coefficient (358.15 K) | activity coefficient (368.15 K) | activity coefficient (378.15 K) | activity coefficient (318.15 K) |
| --- | --- | --- | --- | --- | --- | --- | --- |
| CCC(C)(C)OC [2-methoxy-2-methylbutane] + CCCCCCCCCCCC[N+](C)(C)CCOc1ccccc1.N#C[N-]C#N | 2.49 ± 0.17 | 2.56 ± 0.17 | 2.63 ± 0.18 | 2.69 ± 0.18 | 2.75 ± 0.19 | 2.81 ± 0.19 |  |
| CC(C)(C)O [2-methylpropan-2-ol] + CCCCCCCCCCCC[N+](C)(C)CCOc1ccccc1.O=S(=O)([N-]S(=O)(=O)C(F)(F)F)C(F)(F)F | 1.1 ± 0.07 | 1.06 ± 0.07 | 1.02 ± 0.06 | 0.986 ± 0.062 | 0.952 ± 0.06 |  | 1.14 ± 0.07 |
| CCC(C)O (stereo not given) [butan-2-ol] + CCCCCCCCCCCC[N+](C)(C)CCOc1ccccc1.O=S(=O)([N-]S(=O)(=O)C(F)(F)F)C(F)(F)F | 1.2 ± 0.08 | 1.17 ± 0.07 | 1.15 ± 0.07 | 1.12 ± 0.07 | 1.1 ± 0.07 |  | 1.23 ± 0.08 |
| C1CCCCC1 [cyclohexane] + CCCCCCCCCCCC[N+](C)(C)CCOc1ccccc1.N#C[N-]C#N | 3.15 ± 0.21 | 3.16 ± 0.22 | 3.18 ± 0.22 | 3.2 ± 0.22 | 3.22 ± 0.22 | 3.24 ± 0.22 |  |
| C=CCCC [1-pentene] + CCCCCCCCCCCC[N+](C)(C)CCOc1ccccc1.O=S(=O)([N-]S(=O)(=O)C(F)(F)F)C(F)(F)F | 1.88 ± 0.13 | 1.93 ± 0.13 | 1.98 ± 0.13 | 2.03 ± 0.14 | 2.08 ± 0.14 |  | 1.83 ± 0.12 |
| COC(C)(C)C [2-methoxy-2-methylpropane] + CCCCCCCCCCCC[N+](C)(C)CCOc1ccccc1.O=S(=O)([N-]S(=O)(=O)C(F)(F)F)C(F)(F)F | 1.09 ± 0.07 | 1.15 ± 0.07 | 1.21 ± 0.08 | 1.27 ± 0.08 | 1.33 ± 0.09 |  | 1.03 ± 0.06 |
| C1CCOC1 [tetrahydrofuran] + CCCCCCCCCCCC[N+](C)(C)CCOc1ccccc1.O=S(=O)([N-]S(=O)(=O)C(F)(F)F)C(F)(F)F | 0.39 ± 0.034 | 0.418 ± 0.035 | 0.446 ± 0.036 | 0.473 ± 0.037 | 0.502 ± 0.038 |  | 0.364 ± 0.033 |
| CCc1ccccc1 [ethylbenzene] + CCCCCCCCCCCC[N+](C)(C)CCOc1ccccc1.O=S(=O)([N-]S(=O)(=O)C(F)(F)F)C(F)(F)F | 0.948 ± 0.06 | 0.995 ± 0.062 | 1.04 ± 0.07 | 1.09 ± 0.07 | 1.13 ± 0.07 |  | 0.9 ± 0.057 |
| C#CCCCCC [1-heptyne] + CCCCCCCCCCCC[N+](C)(C)CCOc1ccccc1.O=S(=O)([N-]S(=O)(=O)C(F)(F)F)C(F)(F)F | 1.53 ± 0.1 | 1.61 ± 0.11 | 1.68 ± 0.11 | 1.75 ± 0.12 | 1.83 ± 0.12 |  | 1.45 ± 0.1 |
| CCCCCCC [heptane] + CCCCCCCCCCCC[N+](C)(C)CCOc1ccccc1.O=S(=O)([N-]S(=O)(=O)C(F)(F)F)C(F)(F)F | 3.52 ± 0.24 | 3.6 ± 0.25 | 3.68 ± 0.25 | 3.75 ± 0.26 | 3.83 ± 0.26 |  | 3.44 ± 0.23 |
| C1CCCCC1 [cyclohexane] + CCCCCCCCCCCC[N+](C)(C)CCOc1ccccc1.O=S(=O)([N-]S(=O)(=O)C(F)(F)F)C(F)(F)F | 2.05 ± 0.14 | 2.08 ± 0.14 | 2.11 ± 0.14 | 2.13 ± 0.14 | 2.16 ± 0.15 |  | 2.02 ± 0.14 |
| CCCCO [butan-1-ol] + CCCCCCCCCCCC[N+](C)(C)CCOc1ccccc1.O=S(=O)([N-]S(=O)(=O)C(F)(F)F)C(F)(F)F | 1.32 ± 0.09 | 1.28 ± 0.08 | 1.23 ± 0.08 | 1.19 ± 0.08 | 1.15 ± 0.07 |  | 1.38 ± 0.09 |
| CCCC=O [butanal] + CCCCCCCCCCCC[N+](C)(C)CCOc1ccccc1.O=S(=O)([N-]S(=O)(=O)C(F)(F)F)C(F)(F)F | 0.742 ± 0.049 | 0.777 ± 0.051 | 0.81 ± 0.052 | 0.844 ± 0.054 | 0.876 ± 0.056 |  | 0.711 ± 0.047 |
| CC1CCCCC1 [methylcyclohexane] + CCCCCCCCCCCC[N+](C)(C)CCOc1ccccc1.O=S(=O)([N-]S(=O)(=O)C(F)(F)F)C(F)(F)F | 2.39 ± 0.16 | 2.43 ± 0.17 | 2.47 ± 0.17 | 2.51 ± 0.17 | 2.55 ± 0.17 |  | 2.35 ± 0.16 |
| CC(C)O [propan-2-ol] + CCCCCCCCCCCC[N+](C)(C)CCOc1ccccc1.O=S(=O)([N-]S(=O)(=O)C(F)(F)F)C(F)(F)F | 1.22 ± 0.08 | 1.18 ± 0.08 | 1.14 ± 0.07 | 1.11 ± 0.07 | 1.08 ± 0.07 |  | 1.27 ± 0.08 |
| CCc1ccccc1 [ethylbenzene] + CCCCCCCCCCCC[N+](C)(C)CCOc1ccccc1.N#C[N-]C#N | 1.4 ± 0.09 | 1.45 ± 0.1 | 1.5 ± 0.1 | 1.55 ± 0.1 | 1.6 ± 0.11 | 1.64 ± 0.11 |  |
| CCCCCCCC [octane] + CCCCCCCCCCCC[N+](C)(C)CCOc1ccccc1.N#C[N-]C#N | 6.7 ± 0.46 | 6.8 ± 0.46 | 6.87 ± 0.47 | 6.96 ± 0.47 | 7.07 ± 0.48 | 7.15 ± 0.49 |  |
| Cc1cccc(C)c1 [1,3-dimethylbenzene] + CCCCCCCCCCCC[N+](C)(C)CCOc1ccccc1.N#C[N-]C#N | 1.38 ± 0.09 | 1.44 ± 0.09 | 1.5 ± 0.1 | 1.56 ± 0.1 | 1.61 ± 0.11 | 1.66 ± 0.11 |  |
| CC(C)CO [2-methyl-1-propanol] + CCCCCCCCCCCC[N+](C)(C)CCOc1ccccc1.O=S(=O)([N-]S(=O)(=O)C(F)(F)F)C(F)(F)F | 1.33 ± 0.09 | 1.26 ± 0.08 | 1.21 ± 0.08 | 1.16 ± 0.07 | 1.12 ± 0.07 |  | 1.4 ± 0.09 |
| CCC(=O)CC [pentan-3-one] + CCCCCCCCCCCC[N+](C)(C)CCOc1ccccc1.O=S(=O)([N-]S(=O)(=O)C(F)(F)F)C(F)(F)F | 0.412 ± 0.034 | 0.437 ± 0.035 | 0.462 ± 0.036 | 0.486 ± 0.037 | 0.511 ± 0.038 |  | 0.387 ± 0.034 |
| CCOC(C)(C)C [2-ethoxy-2-methylpropane] + CCCCCCCCCCCC[N+](C)(C)CCOc1ccccc1.N#C[N-]C#N | 3.66 ± 0.25 | 3.74 ± 0.25 | 3.82 ± 0.26 | 3.9 ± 0.27 | 3.97 ± 0.27 | 4.03 ± 0.27 |  |
| CCC(C)CC [3-methylpentane] + CCCCCCCCCCCC[N+](C)(C)CCOc1ccccc1.O=S(=O)([N-]S(=O)(=O)C(F)(F)F)C(F)(F)F | 2.81 ± 0.19 | 2.88 ± 0.2 | 2.95 ± 0.2 | 3.01 ± 0.2 | 3.07 ± 0.21 |  | 2.74 ± 0.19 |
| CCC(=O)CC [pentan-3-one] + CCCCCCCCCCCC[N+](C)(C)CCOc1ccccc1.N#C[N-]C#N | 0.909 ± 0.058 | 0.947 ± 0.06 | 0.981 ± 0.062 | 1.02 ± 0.06 | 1.05 ± 0.07 | 1.08 ± 0.07 |  |
| C1COCCO1 [1,4-dioxane] + CCCCCCCCCCCC[N+](C)(C)CCOc1ccccc1.N#C[N-]C#N | 0.76 ± 0.05 | 0.79 ± 0.051 | 0.818 ± 0.053 | 0.846 ± 0.054 | 0.871 ± 0.056 | 0.898 ± 0.057 |  |
| C=C(C)c1ccccc1 [(1-methylethenyl)benzene] + CCCCCCCCCCCC[N+](C)(C)CCOc1ccccc1.O=S(=O)([N-]S(=O)(=O)C(F)(F)F)C(F)(F)F | 0.831 ± 0.054 | 0.881 ± 0.056 | 0.931 ± 0.059 | 0.985 ± 0.062 | 1.03 ± 0.06 |  | 0.784 ± 0.051 |
| C=C(C)c1ccccc1 [(1-methylethenyl)benzene] + CCCCCCCCCCCC[N+](C)(C)CCOc1ccccc1.N#C[N-]C#N | 1.11 ± 0.07 | 1.18 ± 0.08 | 1.25 ± 0.08 | 1.32 ± 0.09 | 1.39 ± 0.09 | 1.46 ± 0.1 |  |
| C#CCCCCCC [1-octyne] + CCCCCCCCCCCC[N+](C)(C)CCOc1ccccc1.O=S(=O)([N-]S(=O)(=O)C(F)(F)F)C(F)(F)F | 1.78 ± 0.12 | 1.86 ± 0.13 | 1.95 ± 0.13 | 2.03 ± 0.14 | 2.12 ± 0.14 |  | 1.69 ± 0.11 |
| CCC(C)CC [3-methylpentane] + CCCCCCCCCCCC[N+](C)(C)CCOc1ccccc1.N#C[N-]C#N | 5.3 ± 0.36 | 5.37 ± 0.37 | 5.41 ± 0.37 | 5.46 ± 0.37 | 5.5 ± 0.37 | 5.5 ± 0.37 |  |
| CC(C)OC(C)C [diisopropyl ether] + CCCCCCCCCCCC[N+](C)(C)CCOc1ccccc1.N#C[N-]C#N | 4.03 ± 0.27 | 4.12 ± 0.28 | 4.22 ± 0.29 | 4.29 ± 0.29 | 4.36 ± 0.3 | 4.43 ± 0.3 |  |
| CC(C)CC(C)(C)C [2,2,4-trimethylpentane] + CCCCCCCCCCCC[N+](C)(C)CCOc1ccccc1.N#C[N-]C#N | 7.07 ± 0.48 | 7.15 ± 0.49 | 7.23 ± 0.49 | 7.32 ± 0.5 | 7.39 ± 0.5 | 7.47 ± 0.51 |  |

Reference: the NIST ThermoML archive (doi:10.1016/j.fluid.2018.09.024)
